Drawing on ChEMBL document CHEMBL6134908, “Inverse Agonists of Peroxisome Proliferator-Activated Receptor Gamma: Advances and Prospects in Cancer Treatment” (J Med Chem, 2025), this text covers inhibition and EC50 for two molecules.

Test [1] has as its target T1, Peroxisome proliferator-activated receptor gamma (Homo sapiens) (UniProt P37231).
T1 sequence (whole entry): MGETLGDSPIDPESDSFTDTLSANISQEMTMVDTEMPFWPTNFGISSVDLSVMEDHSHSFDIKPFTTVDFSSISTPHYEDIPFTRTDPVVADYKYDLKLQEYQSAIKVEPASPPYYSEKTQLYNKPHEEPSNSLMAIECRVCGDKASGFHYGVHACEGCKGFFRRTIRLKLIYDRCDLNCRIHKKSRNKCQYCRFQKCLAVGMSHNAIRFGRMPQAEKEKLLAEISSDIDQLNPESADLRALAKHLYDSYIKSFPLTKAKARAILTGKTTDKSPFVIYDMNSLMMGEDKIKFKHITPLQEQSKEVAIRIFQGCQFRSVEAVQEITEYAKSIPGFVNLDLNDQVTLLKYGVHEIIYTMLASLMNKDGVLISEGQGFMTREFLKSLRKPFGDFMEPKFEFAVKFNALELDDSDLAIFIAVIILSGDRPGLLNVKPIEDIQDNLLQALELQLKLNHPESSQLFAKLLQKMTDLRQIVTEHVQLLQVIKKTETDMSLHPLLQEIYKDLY
The test can be described thus: Inhibition of PPRAgamma in HEK293 cells assessed as […] in FABP4 mRNA expression at 100 nM relative to control. The test is classed as cell-based.

A short description of test [2]: Induction of ANGPTL4 mRNA expression in human HT1197 cells.

Broadly, the inhibition is the change of the read-out against control, counted positive when it falls. Turning to `N#Cc1ccc(Cl)c(-c2cc(=O)c3c(F)cc(F)cc3[nH]2)c1`, the inhibition in test [1] was 95%.
Broadly, the EC50 is the midpoint of the concentration-response curve. The low end stands for higher potency in that assay, the high end for lower potency in that assay. In test [2], `N#Cc1cc(-c2cc(=O)c3c(F)cc(F)cc3[nH]2)c(Cl)cn1` returned an EC50 of 0.14 nM.
